Read-outs that look alike come from different tables or passages of the source.

The target in one assay is T1, XIAP BIR3 domain (Homo sapiens, UniProt P98170).
T1 construct: fluorescent probe 4 and the XIAP BIR3 domain (Sino Biological, Beijing, China) were used for all measurements; purchased Sino Biological, Beijing, China
Description: Fluorescence polarization inhibition (competition) assay. Type of assay: binding. The following applies: for inhibition at 50 µM: 0.5 h, antagonist 50 µM, inhibition of protein-probe interaction; for Ki / EC50: XIAP BIR3 50 nM, fluorescent probe 4 2 nM. How it is done:
The fluorescence polarization assay was performed at r.t. in Corning 384-well black, polystyrene flat bottom plates (Corning, NY, USA) on a Synergy H4 Hybrid Reader (BioTek, Bad Friedrichshall, Germany). For fluorescence polarization measurements, (milipolarization units, mP) 484/20 nm excitation and 528/20 nm emission filters were selected. Phosphate buffer (pH 7.5) supplemented with γ-globulin (100 µg/mL) and NaN3 (0.02% w/v), fluorescent probe 4 and the XIAP BIR3 domain (Sino Biological, Beijing, China) were used for all measurements. All experiments were performed in duplicate. The obtained fluorescence polarization assay data were analyzed with Prism 5.0 Software (GraphPad Software, San Diego, ca.).
After a 15 min incubation at r.t., fluorescent probe 4 (2 nM) was added. The values were measured 30 min after the moment the probe was added. The assay was performed in phosphate buffer with a final DMSO concentration of 1.4% (v/v). […] In order to evaluate the quality and precision of the performed screening assay, we determined the Z´ factor as described by Zhang et al.. The obtained fluorescence polarization values were used to determine the percent inhibition, which was plotted as a function of the protein concentration. The EC50 and Ki values were calculated with GraphPad software (log(agonist) vs. response (variable slope) model) in combination with the web tool developed by Nikolovska-Coleska et al..
Fluorescence polarization inhibition assay and data analysis for 41m and 42m compounds was performed as described in the Material and Methods section of the manuscript. Briefly, 50 nM solution of the BIR3 XIAP protein in polarization buffer was added into phosphoroorganic compound solution (from 50 μM to 0.0537 nM). After 15 min incubation at r.t. the fluorescent probe 4 (2 nM) was added.
The values were read after 30 minutes from the moment the probe was added. The obtained fluorescence polarization values were used to determine the percentage of inhibition which was plotted as a function of the protein concentration (Supplementary Figure S4).
(1 picture or pasted object on this page, not shown here)

The subject of another assay is A549. Description: Antiproliferative activity, SRB method. In kind it is cell-based, human. The following applies: 72 h; for inhibition at 10 µM: Homo sapiens, A549, 10 µM, read-out: mean proliferation inhibition at highest concentration used, A549. The text has this:
(§1) MDA-MB-231 (human breast cancer), MCF10A (human, nontumorigenic mammary gland epithelial cells), A549 (human nonsmall-cell lung cancer), UMUC-3 (human bladder cancer) and LoVo (human colon cancer) cell lines were obtained from the American Type Culture Collection (ATCC; Rockville, Maryland, USA). The MCF-7 cell line (human breast cancer) was obtained from the European Collection of Cell Cultures (ECACC; Salisbury, UK). All cell lines were maintained at the Hirszfeld Institute of Immunology and Experimental Therapy (HIIET), Wrocław, Poland. MDA-MB-231 cells were cultured in RPMI1640 medium (Thermo Fisher Scientific, Warszawa, Poland) supplemented with 2 mM L-glutamine, 1 mM sodium pyruvate, and 10% fetal bovine serum (all from Sigma-Aldrich, Poznań, Poland). The MCF10A cell line was cultured in Ham’s F12 medium with glutamine (Corning) supplemented with 5% (v/v) fetal bovine serum (FBS), 5% (v/v) horse serum, 10 µg/mL insulin, 0.05 µg/mL cholera toxin, 0.5 µg/mL hydrocortisone, and 20 ng/mL hEGF (all from Sigma-Aldrich). A549 and LoVo cells were cultured in a 1:1 (v/v) mixture of RPMI1640 and Opti-MEM (both from HIIET) supplemented with 5% (v/v) FBS and 2 mM L-glutamine. The UMUC-3 cell line was cultured in high glucose DMEM (Thermo Fisher Scientific) supplemented with 10% FBS and 2 mM Lglutamine. The MCF-7 line was cultured in Eagle’s minimal essential medium (EMEM; Thermo Fisher Scientific) supplemented with 10% (v/v) FBS, 2 mM L-glutamine, 1% (v/v) nonessential amino acids, and 8 µg/mL insulin (all from Sigma-Aldrich). All culture media contained 100 µg/mL streptomycin (Sigma-Aldrich) and 100 U/mL penicillin (Polfa Tarchomin SA, Warszawa, Poland). The cells were grown at 37 °C in a humid atmosphere saturated with 5% CO2.
(§2) Antiproliferative activity was assessed in six cell lines utilizing the sulforhodamine B (SRB) method. Briefly, cells were seeded in 96-well plates (Sarstedt, Warszawa, Poland) at a density of 5 × 10^3 cells/well, and after overnight incubation, the cells were exposed to compounds at various concentrations. After 72 h, the plates were fixed with 50% (v/v) TCA (all from Sigma-Aldrich), washed with tap water, and the precipitated proteins were labeled with 0.1% (w/v) SRB solution in 1% (v/v) AcOH. Next, the plates were washed with 1% (v/v) AcOH, and the remaining SRB dye was solubilized with 10 mM unbuffered TRIS solution. The absorbance was measured using a Biotek Hybrid H4 reader (BioTek Instruments, VT, USA) at 540 nm. Crude results were analyzed using a previously described method, and the results are expressed as the IC50 (compound concentration that reduced cell growth by 50%) compared to the vehicletreated control (0.1% (v/v) DMSO). The samples were analyzed in triplicate, and each experiment was repeated at least three times.

The next assay has as its system LoVo. Description: Antiproliferative activity, SRB method. The settings on record: 72 h; for inhibition at 10 µM: Homo sapiens, LoVo, read-out: mean proliferation inhibition at highest concentration used, LoVo. Type of assay: cell-based, human.
Description: as §1, §2

The next assay relates to MCF-10A. Description: Antiproliferative activity, SRB method. In kind it is cell-based, human. The following applies: 72 h; for inhibition at 10 µM: Homo sapiens, MCF-10A, read-out: mean proliferation inhibition at highest concentration used, MCF-10A.
Description: as §1, §2

For the next assay, the system named is MCF-7. Description: Antiproliferative activity, SRB method. The settings on record: 72 h; for inhibition at 10 µM: Homo sapiens, MCF7, 10 µM, read-out: mean proliferation inhibition at highest concentration used, MCF-7. Type of assay: cell-based, human.
Description: as §1, §2

The next assay relates to MDA-MB-231. Description: Antiproliferative activity, SRB method. Type of assay: cell-based, human. The settings on record: read-out: IC50 ± SD (n = 3) MDA-MB-231.
Description: as §1, §2

The test system of a further assay is UMUC-3. Description: Antiproliferative activity, SRB method. In kind it is cell-based, human. The settings on record: 72 h; for inhibition at 10 µM: Homo sapiens, UMUC3, 10 µM, read-out: mean proliferation inhibition at highest concentration used, UMUC-3.
Description: as §1, §2

T1 sequence (P98170 252-356 limits assumed): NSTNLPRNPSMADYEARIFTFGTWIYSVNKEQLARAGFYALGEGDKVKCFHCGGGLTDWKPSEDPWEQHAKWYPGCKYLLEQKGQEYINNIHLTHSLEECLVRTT

Take `CN[C@@H](C)C(=O)N[C@H](C(=O)N1CCC[C@H]1C(=O)NC(Cc1ccccc1)P(=O)(c1ccccc1)c1ccccc1)C(C)C` (stereo partly drawn) [Compound 13]: at XIAP BIR3 domain, the inhibition at 50 µM amounted to 100%. The inhibitory constant (Ki) on XIAP BIR3 domain stood at 750 nM. Moreover, the EC50 on XIAP BIR3 domain (read-out: EC50) and on XIAP BIR3 domain (read-out: log EC50 (converted)) was 1530 nM in each case. The inhibition at 10 µM in the assay with A549 amounted to 2%; in the assay on LoVo it was 6%; with MCF-10A it was 5%; with MCF-7 it was 22%; with UMUC-3 it was 6%. Further, the IC50 in the assay with MDA-MB-231 (Homo sapiens, MDA-MB-231, 72 h) was found to be 3390 ± 420 nM.
As to `CN[C@@H](C)C(=O)N[C@H](C(=O)N1CCC[C@H]1c1nc(C(=O)c2ccc(F)cc2)cs1)C1CCCCC1` [LCL-161, reference compound], the inhibition at 10 µM in the assay on A549 is 11%; in the assay with LoVo, 26%; with MCF-10A, 2%; in the assay with MCF-7, 19%; in the assay with UMUC-3, 16%. Also, the concentration for half-maximal inhibition (IC50) in the assay with MDA-MB-231 (Homo sapiens, MDA-MB-231, 72 h) came out at 760 ± 230 nM.
With `CN[C@@H](C)C(=O)N[C@H](C(=O)N1CCC[C@H]1C(=O)Nc1snnc1-c1ccccc1)C1CCCCC1` [GDC-0152, reference compound], the EC50 on XIAP BIR3 domain (read-out: EC50) worked out at 10 nM. The inhibition at 10 µM came to 13% with A549; 9% in the assay on LoVo; 1% with MCF-10A; 18% with MCF-7; 13% in the assay with UMUC-3. Moreover, the IC50 with MDA-MB-231 (Homo sapiens, MDA-MB-231, 72 h) came out at 880 ± 210 nM.
For `[NH2][Pt]([NH2])([Cl])[Cl]` [CDDP, cisplatin, reference compound], the 50% inhibitory concentration (IC50) was determined as 1600 ± 400 nM in the assay with A549 (read-out: IC50 ± SD (n = 3) A549); 3900 ± 1300 nM with LoVo (read-out: IC50 ± SD (n = 3) LoVo); 6760 ± 1200 nM in the assay on MCF-10A (read-out: IC50 ± SD (n = 3) MCF-10A); 5360 ± 1800 nM in the assay on MCF-7 (read-out: IC50 ± SD (n = 3) MCF-7); 22100 ± 5260 nM with MDA-MB-231 (72 h); 3730 ± 630 nM in the assay with UMUC-3 (read-out: IC50 ± SD (n = 3) UMUC-3).
In the case of `CN[C@@H](C)C(=O)N[C@H](C(=O)N1CCC[C@H]1C(=O)NC(Cc1ccccc1)P(=O)(c1ccccc1)c1ccccc1)C1CCCCC1` (stereo partly drawn) [Compound 14], the inhibition at 50 µM at XIAP BIR3 domain was 100%. Further, the Ki on XIAP BIR3 domain was determined as 640 nM. Besides, the concentration for a half-maximal effect (EC50) at XIAP BIR3 domain (read-out: EC50) and on XIAP BIR3 domain (read-out: log EC50 (converted)) was 1310 nM throughout. The inhibition at 10 µM stood at 5% with A549; 7% in the assay with LoVo; 1% in the assay on MCF-10A; 20% with MCF-7; 8% in the assay on UMUC-3. Also, in the assay on MDA-MB-231 (Homo sapiens, MDA-MB-231, 72 h), the IC50 is 2720 ± 690 nM.

The values are drawn from article PMC7497679, “Structure-based design, synthesis, and evaluation of the biological activity of novel phosphoroorganic small molecule IAP antagonists” (Investigational New Drugs, 2020).
